Measured values reported in US8273768B2, “Iso CA-4 and analogues thereof as potent cytotoxic agents inhibiting tubuline polymerization” (Centre National de la Recherche Scientifique (CNRS), priority 2007, dated 2012).
Read-outs that look alike come from different tables or passages of the source.

What was measured:
HCT116 = experiment: Study of cytotoxicity (CellTiter-Blue, 72 hours); type: cell-based; conditions: Homo sapiens, HCT-116; 72 hours of incubation; read-out: IC50 for different cell lines: HCT116
Description: (§1) The biological activity of the compounds of the invention was studied in vitro on 7 human cancer cell lines with different tissue origins (HCT116: colorectal carcinoma; K562: chronic myeloid leukemia; B16-F10: melanoma; U87: glioblastoma; A549: lung cancer and MDA-MB 231 and MDA-MB 435: breast cancer). The cells selected for the study were incubated at 37° C. in the presence of one of the compounds added into the culture medium at different concentrations. The whole of the conducted experiments allowed determination of the toxicity level of the tested compound, its effect on the course of the cell cycle as well as its capacity of inducing cell death by apoptosis.
(§2) The cancer cell lines originate from the American Type Culture Collection (Rockville, Md., USA) and were grown according to the recommendations of the supplier.
(§3) The cells A549, U87, MDA-MB231, MDA-MB435 and B16F10 were grown in a culture medium “Dulbecco minimal essential medium” (DMEM) containing 4.5 g/L of glucose and supplemented with 10% fetal calf serum and 1% glutamine. The K562 and HCT116 were grown in an RPMI 1640 medium containing 10% fetal calf serum and 1% glutamine. All the cell lines were maintained in the culture at 37° C. in a humid atmosphere containing 5% of CO2. Cell viability was evaluated by using the reagent “CellTiter-Blue™” (Promega, Wis., USA) while observing the instructions of the manufacturer. The cells were sown in 96-well culture plates with 5000 cells per well in 50 μL of culture medium. After 24 hours of culture, the compounds of general formula (I) dissolved in DMSO were individually added into each of the wells in an amount of 50 μl per well. All the compounds were tested in triplicate for each defined concentration and each experiment was repeated three times. After 72 hours of incubation, 20 μL of resazurin were added in each well. After 2 hours of incubation, the emitted fluorescence was measured at 590 nm after excitation at 560 nm by means of a fluorescence reader of the Victor type (Perkin-Elmer, USA).
(§4) The concentration of each of the compounds which induces the death of 50% of the cells (IC50) was determined after 72 hours of incubation. Certain compounds according to the invention have an IC50 of the order of one nanomolar concentration, therefore equivalent to CA-4 taken as a reference.

[1] = biological target: T1, purified tubulin from pig brains (Sus scrofa, UniProt P02550+P02554); experiment: Inhibition of polymerization of tubulin (turbidimetry); type: biochemical; conditions: pig brain tubulin, turbidimetry at 350 nm
T1 construct: from pig brains, where it forms 20-25% of the soluble proteins; from tissue; host or cells: pig brain
T1 sequence (P02554 whole entry): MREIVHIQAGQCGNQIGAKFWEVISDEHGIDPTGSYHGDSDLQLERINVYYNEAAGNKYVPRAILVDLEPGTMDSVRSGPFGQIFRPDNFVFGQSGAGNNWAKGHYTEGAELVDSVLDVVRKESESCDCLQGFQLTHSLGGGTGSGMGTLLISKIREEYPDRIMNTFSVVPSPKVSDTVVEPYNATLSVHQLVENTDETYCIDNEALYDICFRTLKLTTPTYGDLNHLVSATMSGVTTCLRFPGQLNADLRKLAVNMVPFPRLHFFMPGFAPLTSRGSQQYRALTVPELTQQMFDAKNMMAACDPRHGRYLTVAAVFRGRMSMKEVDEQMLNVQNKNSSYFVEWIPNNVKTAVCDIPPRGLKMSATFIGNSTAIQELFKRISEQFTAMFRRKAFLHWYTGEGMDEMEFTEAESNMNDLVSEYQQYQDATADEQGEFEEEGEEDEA
T1 sequence (P02550 whole entry): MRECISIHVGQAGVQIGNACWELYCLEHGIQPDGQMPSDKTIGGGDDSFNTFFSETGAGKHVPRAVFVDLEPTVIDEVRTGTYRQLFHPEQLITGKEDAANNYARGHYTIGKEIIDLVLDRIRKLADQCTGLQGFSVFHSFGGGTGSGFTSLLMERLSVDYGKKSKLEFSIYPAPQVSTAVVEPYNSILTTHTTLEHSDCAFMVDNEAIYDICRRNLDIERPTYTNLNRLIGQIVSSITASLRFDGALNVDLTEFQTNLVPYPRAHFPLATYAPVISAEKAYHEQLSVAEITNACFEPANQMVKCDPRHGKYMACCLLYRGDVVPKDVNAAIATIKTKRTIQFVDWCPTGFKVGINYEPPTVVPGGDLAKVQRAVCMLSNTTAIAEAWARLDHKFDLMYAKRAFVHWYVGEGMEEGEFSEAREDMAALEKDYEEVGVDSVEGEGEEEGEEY
Description: Tests relating to the inhibition of polymerization of tubulin were carried out on compounds which had the best cytotoxic activities. These tests were carried out on purified tubulin by the Shelanski method (Shelanski, M. C.; Gaskin, F.; Cantor, C. R. Proc. Natl. Acad. Sci. USA, 1973, 70, 765-768) from pig brains, where it forms 20-25% of the soluble proteins. Purification method is based on temperature-dependent assembling-disassembling cycles. Polymerization of tubulin was tracked with turbidimetry according to the Gaskin method (Gaskin, F.; Cantor, C. R.; Shelanski, M. L. J. Bio. Mol. 1974, 89, 737) at a wavelength of 350 nm. The different samples were dissolved in DMSO and incubated for 10 minutes at 37° C. and then for 5 minutes at 0° C.
The CA-4 compound and DMSO were taken as references.
The tests have shown for these compounds an activity inhibiting polymerization of tubulin similar to the one of the reference compound CA-4 (of the order of only one micromolar concentration to a few tens of micromolar concentrations).

MDA-MB 231 = experiment: Study of cytotoxicity (CellTiter-Blue, 72 hours); type: cell-based; conditions: Homo sapiens, read-out: IC50 for different cell lines: M231
Description: as §1, §2, §3, §4

MDA-MB 435 = experiment: Study of cytotoxicity (CellTiter-Blue, 72 hours); type: cell-based; conditions: Homo sapiens, read-out: IC50 for different cell lines: M435
Description: as §1, §2, §3, §4

A549 = experiment: Study of cytotoxicity (CellTiter-Blue, 72 hours); type: cell-based; conditions: Homo sapiens, read-out: IC50 for different cell lines: A549
Description: as §1, §2, §3, §4

HCT 15 cells = conditions: read-out: IC50, cytotoxic activity; cited from earlier work
[2] = test system: mouse colon adenocarcinoma 26; conditions: cited from earlier work
U87 = experiment: Study of cytotoxicity (CellTiter-Blue, 72 hours); type: cell-based; conditions: Homo sapiens, U-87 MG, read-out: IC50 for different cell lines: U87
Description: as §1, §2, §3, §4

[3] = test system: human colon tumors LS174T xenografted in Nude mice; experiment: Antivascular activity in vivo (MRI, Dotarem entry into tumors); conditions: LS174T xenograft, 3 hours after administration, DMXAA 27.5 mg/kg IP, (I-1) 45 mg/kg IV
Description: The antivascular effect of the molecule (I-1) was tested on mice bearing human tumors by comparison with the positive control DMXAA, according to the procedure described by Beauregard et al. (NMR Biomed., 2002, 15:99-105).
Thus, CD-1 Nude female mice were xenografted by subcutaneous injection of human colon tumoral cells (LS174T). The mice bearing tumors were then treated with 0.9% NaCl (carrier, 10 mL/kg), DMXAA (27.5 mg/kg) via an intraperitoneal route (IP) or the molecule (I-1) (45 mg/kg) via an intravenous route (IV). Three hours after administration, the mice were treated with the Dotarem® contrast agent intravenously (IV). The penetration of the contrast agent into the tumors was followed in real time by magnetic resonance imaging (MRI) and is expressed by an enhancement of the intensity of the signal in the tumors. Densitometric analysis of the acquired images allows determination of the maximum enhancement (Rmax) as well as the slope P0 corresponding to the entry rate of Dotarem® into the tumors.

[4] = test system: mouse leukemic P-388 cells; conditions: cited from earlier work
[5] = MDA-MB-231, 72 hours of incubation
[6] = MDA-MB-435, 72 hours of incubation

SMILES: C=C(c1ccc(OC)c(F)c1)c1cc(OC)c(OC)c(OC)c1 [(I-22)]
- IC50 (HCT116): 7 nM
- IC50 [1]: 4100 nM

SMILES: C=C(c1ccc(OC)c(OC(=O)c2ccncc2)c1)c1cc(OC)c(OC)c(OC)c1 [(I-34)]
- IC50 (HCT116): 3 nM

SMILES: C=C(c1ccc(OC)cc1)c1cc(OC)c(OC)c(OC)c1 [(I-2)]
- IC50 (MDA-MB 231; [5]): 40 nM
- IC50 (MDA-MB 435; [6]): 25 nM
- IC50 (HCT116): 42 nM
- IC50 (A549; A549, 72 hours of incubation): 28 nM
- IC50 [1]: 2000 to 3300 nM

SMILES: C=C(c1ccc(OC)c(N)c1)c1cc(OC)c(OC)c(OC)c1 [(I-17)]
- IC50 (MDA-MB 231; [5]): 6 nM
- IC50 (A549; A549, 72 hours of incubation): 8 nM
- IC50 [1]: 1800 nM

SMILES: C=C(c1ccc(OC)c(OC(=O)CN(C)C)c1)c1cc(OC)c(OC)c(OC)c1 [(I-36)]
- IC50 (HCT116): 3 nM

SMILES: COc1ccc(/C=C\c2cc(OC)c(OC)c(OC)c2)cc1O [CA-4, combrestatatin A-4]
- IC50 (HCT 15 cells): 0.9 nM
- Antitumoral activity in vivo [2]: no antitumoral activity is observed

SMILES: C=C(c1ccc(OC)c(OC(=O)C(C)(C)C)c1)c1cc(OC)c(OC)c(OC)c1 [(I-7)]
- IC50 (U87; 72 hours of incubation): 15 nM
- IC50 (MDA-MB 231; [5]): 50 nM
- IC50 (MDA-MB 435; [6]): 25 nM
- IC50 (HCT116): 8 nM
- IC50 (A549; A549, 72 hours of incubation): 28 nM

SMILES: Cc1ccc2c(=O)c3cccc(CC(=O)O)c3oc2c1C [DMXAA, 5,6-dimethylxanthenone-4-acetic acid, reference compound]
- Average of P0 [3]: 0.50±0.40 arbitrary unit
- Average of Rmax [3]: 26.58±21.19 % of the NaCl control

SMILES: C=C(c1ccc(OC)c(OC(C)=O)c1)c1cc(OC)c(OC)c(OC)c1 [(I-6)]
- IC50 (U87; 72 hours of incubation): 18 nM
- IC50 (MDA-MB 231; [5]): 9 nM
- IC50 (MDA-MB 435; [6]): 11 nM
- IC50 (HCT116): 8 nM
- IC50 (A549; A549, 72 hours of incubation): 25 nM

SMILES: C=C(c1ccc(OC)c(OC(=O)CCC(=O)O)c1)c1cc(OC)c(OC)c(OC)c1 [(I-35)]
- IC50 (HCT116): 5 nM

SMILES: C=C(c1ccc(OC)c(OC(=O)Cc2cccc3c(=O)c4ccc(C)c(C)c4oc23)c1)c1cc(OC)c(OC)c(OC)c1 [(I-45)]
- IC50 (HCT116): 7 nM

SMILES: C=C(c1ccc(OC)c(OC(=O)[C@@H](COC(C)(C)C)NC(=O)OCC2c3ccccc3-c3ccccc32)c1)c1cc(OC)c(OC)c(OC)c1 [(I-32)]
- IC50 (HCT116): 8 nM

SMILES: C=C(c1ccc(OC)c(OC(=O)CCCc2ccc(N(CCCl)CCCl)cc2)c1)c1cc(OC)c(OC)c(OC)c1 [(I-8)]
- IC50 (U87; 72 h): 35 nM
- IC50 (MDA-MB 231; MDA-MB-231, 72 h): 50 nM
- IC50 (MDA-MB 435; MDA-MB-435, 72 h): 40 nM
- IC50 (HCT116): 25 nM
- IC50 (A549; A549, 72 h): 42 nM

SMILES: COc1ccc(C=Cc2cc(OC)c(OC)c(OC)c2)cc1O (single isomer, unassigned) [E isomer of CA-4]
- Cytotoxic activity, times weaker than the natural Z isomer [4]: about 60 times
